This note sets out measurements from ChEMBL document CHEMBL1144113, “Methanol adduct of puupehenone, a biologically active derivative from the marine sponge Hyrtios species” (J Nat Prod, 1999).

≈ marks a conversion by molar mass, not a printed value.

The subject of one data set is KB. Kind of data set: Cytotoxicity against human KB cells by neutral red assay. It is filed as functional, cell-based.
Another data set relates to Staphylococcus aureus. Briefly: Antibacterial activity against Staphylococcus aureus at 1 ug/disk after 24 hrs by paper disk method. It is filed as functional. The conditions noted are these: read-out: IZ.
A further data set relates to Candida tropicalis. Kind of data set: Antifungal activity against Candida tropicalis at 50 ug/disk after 48 hrs by paper disk method. It is filed as functional. The following applies: read-out: IZ.
Data set [1] deals with Plasmodium falciparum. Briefly: Antimalarial activity against chloroquine-resistant Plasmodium falciparum PFB in human erythrocytes after 48 hrs by [G-3H]hypoxanthine uptake. Type of data set: functional, organism-based.
Data set [2] deals with Plasmodium falciparum. Briefly: Antimalarial activity against chloroquine-sensitive Plasmodium falciparum F32 in human erythrocytes after 48 hrs by [G-3H]hypoxanthine uptake. The conditions noted are these: F32, 48 h. It is filed as functional, organism-based.
The test system of data set [3] is Plasmodium falciparum. Briefly: Antimalarial activity against chloroquine-resistant Plasmodium falciparum FcB1 in human erythrocytes after 48 hrs by [G-3H]hypoxanthine uptake. Type of data set: functional, organism-based. The following applies: FcB1, 48 h.
Data set [4] is described as follows: Toxicity against Artemia salina. It is filed as organism-based. The conditions noted are these: in vivo.

By IC50 is commonly meant the concentration at which inhibition is half-maximal. Consider `CO[C@@H]1c2cc(O)c(O)cc2O[C@@]2(C)CC[C@H]3C(C)(C)CCC[C@]3(C)[C@@H]12`, for which the IC50 in the data set with KB amounted to 6 µg/mL (≈ 16.6 µM); with Plasmodium falciparum [1], 1.2 µg/mL (≈ 3.33 µM); in the data set with Plasmodium falciparum [2], 0.4 µg/mL (≈ 1.11 µM); with Plasmodium falciparum [3], 1.4 µg/mL (≈ 3.88 µM). Further, in the data set on Staphylococcus aureus, the zone of inhibition at 1 µg/disc worked out at 7 mm. For the same compound, in the data set with Candida tropicalis, the zone of inhibition at 50 µg/disc came to 9 mm.

As to `CO[C@@H]1c2cc(OC(C)=O)c(OC(C)=O)cc2O[C@@]2(C)CC[C@H]3C(C)(C)CCC[C@]3(C)[C@@H]12`, the values for the IC50 with Plasmodium falciparum [1], in the data set on Plasmodium falciparum [2] and with Plasmodium falciparum [3] were 1.2 µg/mL (≈ 2.7 µM), 0.6 µg/mL (≈ 1.35 µM) and 1.4 µg/mL (≈ 3.15 µM), respectively.

By LC50 is commonly meant the concentration that kills 50% of the test population. For the compound `CC1(C)CCC[C@]2(C)[C@H]3C=C4C=C(O)C(=O)C=C4O[C@@]3(C)CC[C@@H]12` [PUUPEHENONE], the IC50 in the data set on KB is 0.5 µg/mL (≈ 1.52 µM); with Plasmodium falciparum [1], 1.5 µg/mL (≈ 4.57 µM); in the data set on Plasmodium falciparum [2] it was 0.6 µg/mL (≈ 1.83 µM); in the data set on Plasmodium falciparum [3] it was 2.1 µg/mL (≈ 6.39 µM). Also, the LC50 in data set [4] was 20 µg/mL (≈ 60.9 µM).
